How the values were obtained:
ESBL-positive strains = experiment: Antibiotic concentration range on CPS ID 3 chromogenic agar: growth of ESBL-positive strains; type: cell-based; settings: CPS ID 3 agar, 37° C., aerobic atmosphere
Description: (§1) In the context of the manipulations carried out, for evaluating the activity of the antibiotics active on gram-negative bacilli, various species of enterobacteria (Escherichia coli, Enterobacter aerogenes, Klebsiella pneumoniae, Serratia marcescens, Proteus mirabilis) and of nonfermenting gram-negative bacilli (Pseudomonas aeruginosa), capable of producing ESBLs, were used. ESBL-positive strains, high level cephalosporinase-producing strains (HL Case) and wild-type strains are compared in the trials.
(§2) The medium used was a CPS ID3 medium (reference 43541) also comprising at least one antibiotic and at least one resistance mechanism inhibitor.
(§3) Osmosed water is added and the whole is homogenized and melted in a waterbath at 100° C. The base medium is dispensed into flasks, the number of which corresponds to the total number of media to be tested during the process. The flasks are then autoclaved for 15 min at 121° C. The media are brought back to and kept molten at 55±3° C. in a waterbath, in order to sterilely add the thermolabile additives (sterilized beforehand by filtration through 0.22 μm). The media are then poured into biplates 90 mm in diameter (i.e. approximately 9.5 ml/half-plate), and left on a flat surface so that they can set. The surface of the agars is then dried under a laminar flow hood for 30 min.
(§4) An inoculum of 0.5 McF is prepared, in physiological saline, from 24-hour precultures at 36° C.±2° C. in an aerobic atmosphere on TSA medium, and then 1 μl of this suspension is transferred into 5 ml of physiological saline. In order to obtain a sufficient number of isolated colonies, a range of inocula made it possible to determine that the optimal amount of bacteria to be inoculated was from 10^3 to 10^4 CFU/ml. The inoculation is carried out directly on the two half-agars using a sterile swab. The cultures are then incubated at 37° C. in an aerobic atmosphere.
(§5) 4. Reading of media: the readings are carried out at 18 hours (±30 min), 24 h (±1h) and 48 h (±4 h). The density and the size of the colonies, and the appearance, the color and the coloration intensities of the mass and of the isolated colonies were observed, according to the following reading scales 1 to 3: 0: no growth; 0.1: trace of growth; 0.25: colonies of diameter<0.5 mm; 0.5: colonies of 0.5 mm in diameter; 0.75: 0.5 mm<diameter<1 mm; 1: colonies of 1 mm in diameter; 1.25: 1 mm<diameter<1.5 mm; 1.5: colonies 1.5 mm in diameter; 2: colonies 2 mm in diameter; 3: colonies of diameter>2 mm.
(§6) The 5 antibiotics recommended by the NCCLS (National Committee for Clinical Laboratory Standards) were tested. For each product tested, a range was prepared in order to determine the concentrations that make it possible to inhibit the wild-type strains of the enterobacteria tested, without affecting the growth of the ESBL-positive strains or the HL Case-positive strains.
(§7) The low value corresponds to the minimum concentration of the antibiotic required to inhibit the wild-type strains of the enterobacteria tested. The high value corresponds to the maximum concentration of the antibiotic that can be used without affecting the growth of the ESBL-positive strains tested.

[1] = system: wild-type strains of the enterobacteria tested; experiment: Antibiotic concentration range on CPS ID 3 chromogenic agar: inhibition of wild-type strains; type: cell-based; settings: CPS ID 3 agar, 37° C., aerobic atmosphere
Description: as §1, §2, §3, §4, §5, §6, §7

[2] = system: wild-type strains of P. aeruginosa; experiment: Antibiotic concentration range on CPS ID 3: complete inhibition of wild-type P. aeruginosa; type: cell-based, Pseudomonas aeruginosa; settings: CPS ID 3 agar
Description: as §1
Osmosed water is added and the whole is homogenized and melted in a waterbath at 100° C. The base medium is dispensed into flasks, the number of which corresponds to the total number of media to be tested during the process. The flasks are then autoclaved for 15 min at 121° C. […]
as §5, with “mm. […]” for “mm.”

[3] = system: ESBL-positive enterobacterial strains; type: cell-based, enterobacteria; settings: in the presence of cefotaxime
Description: 4. Reading of media: the readings are carried out at 18 hours (±30 min), 24 h (±1h) and 48 h (±4 h). The density and the size of the colonies, and the appearance, the color and the coloration intensities of the mass and of the isolated colonies were observed, according to the following reading scales 1 to 3: 0: no growth; 0.1: trace of growth; 0.25: colonies of diameter<0.5 mm; 0.5: colonies of 0.5 mm in diameter; 0.75: 0.5 mm<diameter<1 mm; 1: colonies of 1 mm in diameter; 1.25: 1 mm<diameter<1.5 mm; 1.5: colonies 1.5 mm in diameter; 2: colonies 2 mm in diameter; 3: colonies of diameter>2 mm. […]

[4] = system: E. casseliflavus and E. gallinarum strains (natural resistances); experiment: Example 4: Columbia chromogenic media with vancomycin, naturally resistant enterococci; type: cell-based, Enterococcus casseliflavus, Enterococcus gallinarum; settings: vancomycin 8 mg/l
Description: In the context of the manipulations carried out, for evaluating the activity of antibiotics active on enterococci, various species of Enterococcus (Enterococccus faecalis, Enterococcus faecium, Enterococcus casseliflavus, Enterococcus gallinarum,) were used. In the assays, strains resistant to glycopeptides (VRE) and wild-type strains are compared.
The media used were a Columbia medium (51026), also comprising: • 5-bromo-4-chloro-3-indolyl-N-methyl-α-D-glucopyranoside (GreenA-α-Glu) at 150 mg/l, • 6-chloro-3-indolyl-β-glucopyranoside (Rose-b-Glu [Pink-b-Glu]) at 200 mg/l, or: • 5-bromo-4-chloro-3-indolyl-N-methyl-α-D-glucopyranoside (GreenA-α-Glu) at 150 mg/l, • alizarine-β-galactopyranoside at 50 mg/l • and vancomycin at 8 mg/l, • an amphotericin B at 4 mg/l, • and colistine at 2 mg/l, • and aztreonam at 32 mg/l.
as §3, with “two basic media are” for “base medium is”, “flasks.” for “flasks, the number of which corresponds to the total number of media to be tested during the process.”, “plates” for “biplates”, “diameter” for “diameter (i.e. approximately 9.5 ml/half-plate),”, “min. […]” for “min.”

SMILES	High value: maximum concentration of the antibiotic that can be used without affecting the growth of the ESBL-positive strains tested (ESBL-positive strains)	Low value: minimum concentration of the antibiotic required to inhibit the wild-type strains of the enterobacteria tested [1]	further results
C[C@H]1[C@H](NC(=O)/C(=N\OC(C)(C)C(=O)O)c2csc(N)n2)C(=O)N1S(=O)(=O)O [Aztreonam, aztreonam]	1.5 mg/L	1 mg/L	
CO/N=C(\C(=O)N[C@@H]1C(=O)N2C(C(=O)O)=C(COC(C)=O)CS[C@H]12)c1csc(N)n1 [Cefotaxime, cefotaxime]	2 mg/L	1 mg/L	
COCC1=C(C(=O)O)N2C(=O)[C@@H](NC(=O)/C(=N\OC)c3csc(N)n3)[C@H]2SC1 [Cefpodoxime, cefpodoxime]	10 mg/L	2 mg/L	
CC(C)(O/N=C(\C(=O)N[C@@H]1C(=O)N2C(C(=O)[O-])=C(C[n+]3ccccc3)CS[C@H]12)c1csc(N)n1)C(=O)O [Ceftazidime, ceftazidime]	2.5 mg/L	2 mg/L	minimum concentration for complete inhibition of wild-type strains of P. aeruginosa (limiting value) [2]: 1.5 mg/L
CO/N=C(\C(=O)N[C@@H]1C(=O)N2C(C(=O)O)=C(CSc3nc(=O)c(=O)[nH]n3C)CS[C@H]12)c1csc(N)n1 [Ceftriaxone, ceftriaxone]	2.5 mg/L	1 mg/L	
O=C(O)[C@H]1/C(=C/CO)O[C@@H]2CC(=O)N21 [clavulanic acid]			relative effectiveness among the β-lactamase inhibitors (BLI) tested [3]: most effective BLI
CN[C@H](CC(C)C)C(=O)N[C@H]1C(=O)N[C@@H](CC(N)=O)C(=O)N[C@H]2C(=O)N[C@H]3C(=O)N[C@H](C(=O)N[C@H](C(=O)O)c4cc(O)cc(O)c4-c4cc3ccc4O)[C@H](O)c3ccc(c(Cl)c3)Oc3cc2cc(c3O[C@@H]2O[C@H](CO)[C@@H](O)[C@H](O)[C@H]2O[C@H]2C[C@](C)(N)[C@H](O)[C@H](C)O2)Oc2ccc(cc2Cl)[C@H]1O [vancomycin]			effect on E. casseliflavus and E. gallinarum strains ([4]; medium with α-glucosidase and β-galactosidase substrates): inhibited; effect on E. casseliflavus and E. gallinarum strains ([4]; medium with α-glucosidase and β-glucosidase substrates): inhibited

— patent US20210363563A1, “MEDIUM FOR THE SPECIFIC DETECTION OF RESISTANT MICROORGANISMS” (BIOMERIEUX, priority 2005, published 2021)
